{"source": "patent US20070049498A1", "about": "“Agricultural compositions which enhance performance of herbicides” (priority 2005, published 2007)", "origin": "cited, not measured here", "conditions": "glyphosate in acid form", "data": [{"compound": "O=C(O)CNCP(=O)(O)O", "note": "[glyphosate, N-phosphonomethylglycine]", "values": [{"measurement": "water solubility", "result": "about 1.2%"}]}]}
